Source: patent publication US5498624A, “Selected pyrazolyl derivatives” (Monsanto Company, priority 1995, dated 1996)

Tests used:
Assay type in all cases: in vivo
[1] = tested on: Erysiphe graminis f. sp. tritici; assay: Wheat Powdery Mildew Foliar Curative Treatment (WPM Cur); conditions: 20 ppm foliar curative, inoculation 48 hours prior to application
Protocol: A) Pathogen/Inoculum Production follow as per Example 2. (B) Host Propagation, (C) Compound Preparation and (D) Compound Application follow as per Example 1.
E) Inoculation/Incubation--Inoculation is accomplished as per Example 1, 48 hours prior to compound application. The incubation period is temporarily interrupted for chemical treatment, the plants are allowed to dry and then returned to the incubation chamber.
(G) Evaluation and (H) Data follow as per Example 1. The percent protection values for the compounds of the present invention are as set out in the Table below.

Septoria nodorum = assay: Wheat Glume Blotch Foliar Assay, curative (WGB Cur); conditions: application two days post-inoculation, * = averaged value
Protocol: A) Host Propagation--Winter wheat plants, cv. Caldwell, are grown in 5.7 cm^2 pots, three per pot, and maintained in a growth chamber set at 20° C., 80% RH with a 12 hour photoperiod.
B) Compound Preparation--A 1.0% stock solution of each of the compounds of the present invention is first prepared utilizing an appropriate solvent such as acetone, water or DMSO. This stock is then used to prepare the final spray solution which contains the compound at the desired dosage, eg 100 ppm and 20 ppm, acetone at 20% v/v, Tween®20 at .05% w/v, and water at about 80%. Commercial standard used is tebuconazole at equivalent rates.
C) Compound Application, Seedlings are sprayed at the two-leaf stage (GS 12) using a DeVilbiss Model 152 hand operated sprayer set at 15-20 psi. Six ml of the test solution per treatment are applied to three pots. In the protectant assay (EXAMPLE 8), the compound application is made two days pre-inoculation. In the curative assay (EXAMPLE 9), the compound is applied during a brief interruption of the disease incubation period two days post-inoculation. […]
E) Test Evaluation--Eight to ten days after removal from the high humidity chamber, or twelve to fourteen days after inoculation, treatments are evaluated by visually estimating the percentage of the leaf area (on the first leaf) covered with lesions. […] Percent disease, as well as percent control values are calculated. […]

Venturia inaequalis [2] = assay: Apple Scab Foliar Assay (ASC Prot); conditions: apple seedlings
Protocol: A) Host Propagation--Apple, var. McIntosh, are collected form trees in the field and stored in a cold room at 4° C. After a minimum of 60 days storage, seed are collected and germinated in vermiculite in 3 inch pots in a growth chamber set at 27° C. day and 23° C. night temperature. When seedlings have emerged and 2-3 true leaves formed, the seedling are transplanted into 4 inch square pots containing a soil medium consisting of commercial potting mix. Seedlings are grown in this medium to the 8-10 leaf stage for use in tests. Before each test, the petiole of the smallest unfolded leaf is marked, with this leaf and the immediate five older leaves sprayed and inoculated in the test. The petiole of the oldest sprayed and inoculated leaf is also marked. The marking facilitates data collection for specific leaves and identification of the application site.
B) Test Compound Preparation--Compounds of the present invention are applied to the upper and lower leaf surfaces of the identified leaves at the rate of 100 and 20 ppm using a DiVilbiss Model 152 hand sprayer. Four plants per treatment are sprayed with 12 mls of spray solution which contains 40% acetone, 59.9% water, and 0.1% Triton B1956. Nova® (myclobutanil) is used as the commercial standard. It is suspended in water and applied at equivalent rates.
C) Pathogen/Inoculum Production--Inoculum from the apple scab pathogen, Venturia inaequalis, is obtained directly by washing conidia off of scab lesions from leaves on apple seedlings or by use of previously collected conidial suspension that has been frozen in a glass vial at -80° C. Conidial suspension concentration is adjusted to approximately 1×10^5 spores/ml by dilution with a solution of 1% v/v V8 juice/water. […]
D) Test Evaluation--Phytotoxicity data, and leaf burning, etc. is collected by treatment at the time of pathogen inoculation and at disease evaluation. Disease is evaluated on day 8-12 by estimating the amount of treated leaf tissue that is covered by apple scab lesions or symptoms. […] The percentage control is calculated as in the above examples.

Venturia inaequalis [3] = assay: Apple Scab Foliar Assay (ASC Cur); conditions: 20 ppm, sprayed 72 hours after inoculation, apple seedlings
Protocol: Apple Scab Foliar Assay Methods (ASC Cur)--This assay is that of Example 1 except for the sequence of the chemical application and pathogen inoculation events. One month old apple seedlings are inoculated as described. 72 hours later, the plants are removed from the mist chamber and sprayed with the test chemicals and then returned to the mist-chamber after 1 to 2 hours. Disease evaluation is made on day 8-12.

Structure (SMILES)	WPM Cur percent disease control [1]	WGB Cur percent control (Septoria nodorum; 20 ppm)	WGB Cur percent control (Septoria nodorum; 100 ppm)	ASC Prot percentage control (Venturia inaequalis [2]; 20 ppm foliar protectant)	ASC Cur percentage control (Venturia inaequalis [3])	ASC Prot percentage control (Venturia inaequalis [2]; 100 ppm foliar protectant)
C[C@H]1CCC[C@H](c2ccccc2NC(=O)c2cn(C)nc2C(F)F)C1 (relative stereo) [Number 3, 1H-pyrazole-4-carboxamide, 3-(difluoromethyl)-1-methyl-N-[2-(3-methylcyclohexyl)phenyl]-, trans-]	89%	62%	67%	90%	69%	
C[C@@H]1CCC[C@H](c2ccccc2NC(=O)c2cn(C)nc2C(F)F)C1 (relative stereo) [Number 2, 1H-pyrazole-4-carboxamide, 3-(difluoromethyl)-1-methyl-N-[2-(-3-methylcyclohexyl)phenyl]-, cis-]				58%		99%
